Data set [1] addresses T1, T7 RNA polymerase (Escherichia phage T7, UniProt P00573).
T1 construct: purchased USB
As to the kind of experiment: Incorporation of Fc-UTP into RNA in the course of transcription. The format is biochemical. The protocol:
Circular plasmid pT7Mta which contains the promoter for T7 RNA polymerase followed by the gene for aptamer C40 and a T7 terminator sequence was used for transcription. T7 RNA polymerase tends to produce short abortive RNA transcripts when modified nucleotides are incorporated into the first 12 nucleotides of RNA.
A typical transcription mixture (10 μL) contained 40 mM tris-HCl (pH 8.0), 15 mM MgCl2, 5 mM DTT, 0.05 mg/mL BSA, 1 UOL Rnasin, 0.4 mM NTPs, 10 ug/mL pT7Mta template, and 10U/uL T7 RNA polymerase. In some reaction mixtures, UTP was partially or fully substituted with […] in such a way that the total concentration of UTP and Fc-UTP was still 0.4 mM. Reaction mixtures were incubated at 37° C. for 2 h. Reactions were stopped by addition of 10 μL of gel loading buffer (98% formamide, 10 mM EDTA (pH 8.0), 0.025% bromophenol blue and 0.025% xylene cyanole PF) and heated at 95° C. for 2 min. RNA fragments were separated by 10% PAGE/8 M urea. The gel was stained by SYBR Green II (Sigma) according to manufacturers procedure, and visualised on a Fluorimager (Bio-Rad).

Data set [2] can be described thus: Cyclic voltammetry of Fc-NTP. The format is physicochemical. The conditions noted are these: vs. Ag/AgCl; 20 mM tris-acetate pH 7.4, 100 mM KCl, 1 mM MgCl2; scan rate 20 mV/s. An excerpt: Fc-dUTP and Fc-UTP have characteristic absorption spectra which correspond to a superposition of spectra for the modified nucleotide and ferrocene carboxamide constituents. They have a strong absorption in the UV region and a seal, broad peak characteristics of ferrocene near 440 nm. Cyclic voltammetry of Fc-dUTP yields a symmetric peak with E1/2=398 mV vs. Ag/AgCl, consistent with reversible redox reaction of the Fc moiety. The redox potential of Fc-dUTP is 90 mV greater than the potential of ferrocenecarboxylate (310 mV vs. Ag/AgCl) measured in the same buffer (data now shown), reflecting the change of pentadienyl ring substituent (—COO to —CONHR) to one which is more electron-withdrawing. The observed potential is close to that reported for a ferrocene carboxamide moiety attached to the 5′-end of DNA oligonucleotides in aqueous buffer (406-425 mV vs. Ag/AgCl).
Cyclic voltammograms were recorded with an electrochemical analyser (BAS). The three-electrode system consisted of a glassy carbon working electrode, a Ag/AgCl (saturated KCl) reference electrode (Eref=206 mV) and a platinum counter electrode. Experiments were performed in a 5 ml electrochemical cell containing 0.8 mM Fc-NTP in 20 mM tris-acetate (pH 7.4), 100 mM KCl, and 1 mM MgCl2 at a scan rate of 20 mV/s. The scan range was from −0.1 to +0.8 V (vs. Ag/AgCl). (See FIG. 2).

T1 sequence (P00573 whole entry): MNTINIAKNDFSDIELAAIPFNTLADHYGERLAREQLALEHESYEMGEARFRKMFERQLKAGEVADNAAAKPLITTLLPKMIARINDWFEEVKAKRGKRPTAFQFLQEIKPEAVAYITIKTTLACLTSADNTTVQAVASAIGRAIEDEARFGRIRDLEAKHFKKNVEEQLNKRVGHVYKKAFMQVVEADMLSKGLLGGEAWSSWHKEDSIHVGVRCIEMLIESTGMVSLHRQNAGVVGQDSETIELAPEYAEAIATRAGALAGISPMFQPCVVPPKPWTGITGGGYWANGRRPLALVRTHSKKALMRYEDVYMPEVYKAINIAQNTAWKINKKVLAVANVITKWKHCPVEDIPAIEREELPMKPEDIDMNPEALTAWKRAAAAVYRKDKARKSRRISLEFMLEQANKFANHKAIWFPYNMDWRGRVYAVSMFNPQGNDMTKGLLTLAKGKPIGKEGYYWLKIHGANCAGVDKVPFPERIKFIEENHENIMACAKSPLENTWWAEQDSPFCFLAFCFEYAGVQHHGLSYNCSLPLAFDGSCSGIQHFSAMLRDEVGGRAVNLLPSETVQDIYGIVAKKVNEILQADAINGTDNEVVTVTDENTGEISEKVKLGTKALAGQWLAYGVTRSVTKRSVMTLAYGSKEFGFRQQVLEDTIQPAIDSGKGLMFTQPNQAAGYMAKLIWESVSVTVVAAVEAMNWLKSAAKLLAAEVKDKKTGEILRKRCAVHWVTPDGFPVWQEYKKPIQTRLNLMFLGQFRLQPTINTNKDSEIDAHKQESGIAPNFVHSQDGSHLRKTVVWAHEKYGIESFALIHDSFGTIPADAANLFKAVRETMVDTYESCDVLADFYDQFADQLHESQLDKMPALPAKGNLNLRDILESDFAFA

For `O=C(NCC=Cc1cn([C@@H]2O[C@H](COP(=O)(O)OP(=O)(O)OP(=O)(O)O)[C@@H](O)[C@H]2O)c(=O)[nH]c1=O)[c-]1cccc1.[Fe+2].c1cc[cH-]c1` [Fc-UTP, 5-(3ferrocenecarboxamidopropenyl-1)-uridine-5′-triphosphate], the “amount of RNA product formed” value is listed as “significant decrease in the amount of RNA product formed” in data set [1] (substitution of UTP by Fc-UTP, total 0.4 mM) and “synthesized a significant amount of RNA product” in data set [1] (total absence of UTP (full substitution by Fc-UTP)).

For “ferrocenecarboxylate [reference compound]”, the “E1/2 (redox potential)” value in data set [2] amounted to 310 mV.

The values are drawn from US20050214759A1, “Enzymatic redox labelling of nucleic acids” (priority 2001, published 2005).
